Measurements from publication PMC11348465, “Pharmacochemical Study of Multitarget Amino Acids’ Hybrids: Design, Synthesis, In vitro, and In silico Studies” (Medicinal Chemistry (Shariqah (United Arab Emirates), 2024).
Like-named read-outs stand apart in the source and are kept apart here.

Key:
albumin = assay: Albumin denaturation studies
Protocol: The synthesized compounds were evaluated for the inhibition of albumin denaturation. Test tubes containing 1 mL of albumin solution (1% w/v in phosphate buffer pH=7.4), buffer, and 20 μL of the tested compounds dissolved in DMSO are incubated at 37°C for 15 minutes (final concentration 100 µM). The incubation follows at 60°C for another 15 minutes to induce albumin denaturation. The samples are cooled to room temperature. Their absorbance was measured at 660 nm. DMSO was used as a blank solution and acetylsalicylic acid as a reference compound. The results are given in Table S1 in the supplementary material.
Protein denaturation has correlated well with the inflammatory response, leading to various inflammatory diseases. It is known that tissue injury during life might refer to the denaturation of cells' protein constituents or intercellular substances. […] Many anti-inflammatory drugs can inhibit the heat-coagulation of serum albumin [78]. Thus, the inhibition of albumin heat-coagulation activity of the designed molecules was examined in vitro [60] as a measure of their anti-inflammatory activity. The experimental results were compared to the standard drug, acetylsalicylic acid. […] The results are given in Table S1 in the supplementary material.

[1] = cited from earlier work
ovine COX-2 = target: T1, ovine COX-2 (Ovis aries, UniProt P79208); assay: Cyclooxygenase-2 inhibition study; type: biochemical; conditions: for IC50: read-out: COX-2 inhibition (IC50); for COX-2 inhibition (%): % inhibition at 100 µM
T1 construct: purchased Cayman (USA)
T1 sequence (P79208 17-603): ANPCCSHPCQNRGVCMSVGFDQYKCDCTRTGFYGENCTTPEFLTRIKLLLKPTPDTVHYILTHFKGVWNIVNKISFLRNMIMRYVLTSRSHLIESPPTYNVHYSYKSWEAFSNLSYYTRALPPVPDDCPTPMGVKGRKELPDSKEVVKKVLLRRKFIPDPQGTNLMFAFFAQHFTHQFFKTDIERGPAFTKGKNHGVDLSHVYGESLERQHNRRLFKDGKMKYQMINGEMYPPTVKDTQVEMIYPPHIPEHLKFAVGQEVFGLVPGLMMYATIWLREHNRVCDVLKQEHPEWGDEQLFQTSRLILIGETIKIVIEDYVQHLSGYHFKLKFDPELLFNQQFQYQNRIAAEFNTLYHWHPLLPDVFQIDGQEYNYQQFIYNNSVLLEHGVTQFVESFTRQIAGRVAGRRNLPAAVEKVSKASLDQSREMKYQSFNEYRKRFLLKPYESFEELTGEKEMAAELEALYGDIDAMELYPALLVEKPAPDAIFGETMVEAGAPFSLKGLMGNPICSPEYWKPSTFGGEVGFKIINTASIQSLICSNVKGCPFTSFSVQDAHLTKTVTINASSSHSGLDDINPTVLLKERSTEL
Protocol: The in vitro study of cyclooxygenase (COX) activity was determined by using arachidonic acid (AA) as the substrate and N,N,N’,N’-tetramethylphenylenediamine (TMPD) as the co-substrate. […] The absorption due to the spontaneous oxidation of TMPD was subtracted from the initial rate of oxidation observed in the presence of AA. […] A blank determination was used first to serve as a negative control. Indomethacin was used as a reference COX-2 inhibitor (positive control).
The role of COX-2 in neurodegenerative diseases has been reported, and COX-2 inhibition is considered of high importance as a therapeutic tool. The designed derivatives were tested for their COX-2 inhibition activity on the ovine COX-2 enzyme. […] Indomethacin was used as a reference compound.

[2] = target: T2, soybean lipoxygenase (LOX-1) (Glycine max, UniProt P08170); assay: Soybean lipoxygenase inhibition study; type: biochemical; conditions: for LOX inhibition (%): % inhibition at 100 µM
T2 construct: purchased Sigma Chemical, Co. (St Louis, MO, USA)
T2 sequence (P08170 1-839): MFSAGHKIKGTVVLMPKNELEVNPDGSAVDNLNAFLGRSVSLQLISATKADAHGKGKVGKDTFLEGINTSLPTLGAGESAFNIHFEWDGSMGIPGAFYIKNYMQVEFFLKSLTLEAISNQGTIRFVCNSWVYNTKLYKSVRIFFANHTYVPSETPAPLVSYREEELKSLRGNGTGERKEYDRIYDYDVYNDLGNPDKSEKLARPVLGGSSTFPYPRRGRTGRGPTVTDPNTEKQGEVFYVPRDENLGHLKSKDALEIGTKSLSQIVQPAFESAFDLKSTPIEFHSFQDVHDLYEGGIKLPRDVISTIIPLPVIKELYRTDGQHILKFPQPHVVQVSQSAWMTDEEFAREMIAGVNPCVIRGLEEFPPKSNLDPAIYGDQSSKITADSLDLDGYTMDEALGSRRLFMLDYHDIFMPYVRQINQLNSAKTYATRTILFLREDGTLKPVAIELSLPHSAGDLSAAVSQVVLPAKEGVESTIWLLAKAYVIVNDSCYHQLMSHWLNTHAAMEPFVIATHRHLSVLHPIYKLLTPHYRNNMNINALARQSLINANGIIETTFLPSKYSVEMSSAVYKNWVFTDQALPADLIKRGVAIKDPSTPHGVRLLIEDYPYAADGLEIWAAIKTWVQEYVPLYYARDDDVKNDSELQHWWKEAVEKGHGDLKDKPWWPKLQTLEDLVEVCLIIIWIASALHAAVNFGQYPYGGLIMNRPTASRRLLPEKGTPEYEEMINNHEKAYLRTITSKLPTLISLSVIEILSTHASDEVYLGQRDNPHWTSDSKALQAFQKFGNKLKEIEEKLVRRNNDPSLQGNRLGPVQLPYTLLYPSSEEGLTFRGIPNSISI
Protocol: Our group evaluated an in vitro study as reported previously. The tested hybrids were incubated at room temperature with sodium linoleate (100 µM) and 200 µL of enzyme solution (1/9 X 10^-4 w/v in saline). […] Different concentrations were used for the determination of IC50. A blank determination was used as a negative control.
Due to the limited work on sufficiently purified human ALOX-5 isoenzyme, most of the published research was performed on the soybean homolog. […] This study used the soybean isoenzyme LOX-1, which exerts maximal activity at pH 9.0 [72].

[3] = Inhibition of linoleic acid peroxidation (AAPH-induced)
Protocol: Our group evaluated the in vitro study as reported previously. Ten 16 mM sodium linoleate solution microliters were added to the UV cuvette containing 93 µL of a 0.05 M phosphate buffer, pH 7.4, and 10 µL of the tested compounds (final concentration 100 µM). The oxidation reaction started at 37 °C under air by adding 50 µL of the free radical initiator AAPH (40 mM). Oxidation was carried out and monitored at 234 nm. DMSO under the same conditions was used as a negative control. Trolox was used as the appropriate standard (positive control). The results are given in Table S1 in the supplementary material.
We used the water-soluble 2, 2’-azobis(2-amidinopropane) hydrochloride (AAPH) to generate in vitro peroxyl radicals through spontaneous thermal decomposition, which resembles cellular lipid peroxidation due to the activity of the undertaken radicals. The anti-lipid peroxidation activities were compared to a well-known antioxidant, i.e., Trolox (Table S1 in the supplementary material). […] In general, the anti-lipid peroxidation ranged from 8-99%. Except for acids 11, 12, 17, 19, 21, 22, 24, 25, and 28, which present high antioxidant activities (on the high % level), the other cinnamic acids present low or medium activity.

[4] = read-out: LOX inhibition (IC50)

Structure (SMILES)	inhibition at 100 µM (ovine COX-2)	IC50 (ovine COX-2)	LOX inhibition (%) [2]	AAPH inhibition (%, at 100 µM) [1]	AAPH inhibition (%, at 100 µM) [3]	further results
CC(=O)Oc1ccccc1C(=O)O [Aspirin, acetylsalicylic acid, reference compound]						Albumin denaturation (%, at 100 µM) (albumin): 31.2%
O=C(O)/C=C/c1ccc(OCc2ccc(Br)cc2)cc1 [Compound 11]	17%			84%		IC50 [2]: 100 µM
O=C(O)/C=C/c1cccc(Oc2ccccc2)c1 [Compound 12]	39%			84%		
CCOC(=O)CNC(=O)/C=C/c1cccc(Oc2ccccc2)c1 [Compound 12a]		55 µM	36%		48%	
O=C(O)/C=C/c1ccc(C(F)(F)F)cc1 [Compound 13]	32%				37%	inhibition at 100 µM ([2]; read-out: LOX inhibition (%)): 42%
COC(=O)CC[C@H](NC(=O)/C=C/c1cccc2ccccc12)C(=O)OC [Compound 17c]		62 µM			57%	IC50 [2, 4]: 68 µM
COc1ccc(/C=C/C(=O)O)cc1OC [Compound 18]	19%			86%		
CCOC(=O)CNC(=O)/C=C/c1ccc(OC)c(OC)c1 [Compound 18a]					99%	COX-2 inhibition (%) (ovine COX-2): 14%; IC50 [2, 4]: 62.5 µM
COc1ccc(OC)c(/C=C/C(=O)O)c1 [Compound 19]	28%				88%	IC50 [2, 4]: 60 µM
CCOC(=O)CNC(=O)/C=C/c1ccc2c(c1)OCO2 [Compound 20a]		75 µM	6%		70%	
O=C(O)/C=C/c1cccs1 [Compound 21]				60%		
O=C(O)/C=C/c1ccccc1 [Compound 22, cinnamic acid]	4%			78%		
COC(=O)CC[C@H](NC(=O)/C=C/C=C/c1ccccc1)C(=O)OC [Compound 23c]					25%	COX-2 inhibition (%) (ovine COX-2): 47%; IC50 [2, 4]: 75 µM

Second part, led by results:

inhibition at 100 µM (ovine COX-2)	IC50 (ovine COX-2)	LOX inhibition (%) [2]	Structure (SMILES)	AAPH inhibition (%, at 100 µM) [1]	AAPH inhibition (%, at 100 µM) [3]	further results
	55 µM	20%	CCOC(=O)CNC(=O)/C=C/c1cccs1 [Compound 21a]		15%	
		0%	COC(=O)CCCNC(=O)/C=C/c1cccs1 [Compound 21b]		73%	COX-2 inhibition (%) (ovine COX-2): 38%
	5 µM	0%	CCOC(=O)CNC(=O)/C=C/c1ccccc1 [Compound 22a]		5%	
